Experimental data published in patent US20230302018A1 (priority 2022, published 2023).

System: Male Wistar rats exposed to nitrogen mustard (NM)
Settings: rat, in vivo

SMILES: CC[C@H]1[C@@H](O)[C@@H]2[C@H](CC[C@]3(C)[C@@H]([C@H](C)CCC(=O)O)CC[C@@H]23)[C@@]2(C)CC[C@@H](O)C[C@@H]12 [OCA, 6α-ethyl-chenodeoxycholic acid]
- reduction in total collagen (hydroxyproline in tissue) compared to NM alone: 2 fold
